Patent publication US20160176961A1, “THROMBOPOIETIN RECEPTOR LIGANDS FOR NEUROPROTECTION” (MCW Research Foundation, Inc., priority 2011, published 2016)
Entries after “also recorded” stand apart in the source; their conditions may differ.

Legend:
Male Sprague Dawley rats = assay: left middle cerebral artery occlusion followed by reperfusion (focal stroke); format: in vivo, rat
Method: Male Sprague Dawley rats, 10 weeks of age (n=6/group) undergo 2-3 hours of left middle cerebral artery occlusion followed by 20-48 hours of reperfusion. Vehicle or thrombopoietin (0.03 to 1.00 μg/kg) is administered intravenously immediately after reperfusion. Brain infarct and swelling, neurologic deficits, matrix metalloproteinase-9 (MMP-9), tissue inhibitor of metalloproteinase-1 (TIMP-1), thrombopoietin and c-Mpl (thrombopoietin receptor) mRNA and protein, MMP-9 enzyme activity and protein expression, and the integrity of the blood-brain barrier are measured. Reperfusion of the left middle cerebral artery occlusion is expected to produce a large infarct and swelling after stroke.
Thrombopoietin is administered intravenously over the range 0.001-10 μg/kg. […] Stroke-induced increases in cortical MMP-9 mRNA, enzyme activity and protein expression, TIMP-1 mRNA, and Evans blue extravasation would be reduced by administration of thrombopoietin.

heart = settings: earlier work of the inventor, U.S. Pat. No. 7,879,318; cited from earlier work
[1] = compared with Tpo itself; literature (Blood 85:981; J interferon Cyto Res); cited from earlier work
[2] = rat MCA occlusion/reperfusion, i.v. thrombopoietin

Molecule: Thrombopoietin
- most effective thrombopoietin dose (Male Sprague Dawley rats; i.v., tested over the range 0.001-10 μg/kg, immediately or 2 hours after reperfusion): 0.05 to 1.0 µg/kg
- stroke-induced increase in Evans blue extravasation (blood-brain barrier integrity) (Male Sprague Dawley rats; [2]): reduced
- stroke-induced increase in TIMP-1 mRNA (Male Sprague Dawley rats; [2]): reduced
- stroke-induced increases in cortical MMP-9 mRNA, enzyme activity and protein expression (Male Sprague Dawley rats; [2]): reduced
- neurologic deficits after stroke (Male Sprague Dawley rats; rat MCA occlusion/reperfusion, i.v. immediately or 2 hours after reperfusion, vs untreated controls): ameliorate
- infarct size and swelling (Male Sprague Dawley rats; rat, 2-3 h MCA occlusion, 20-48 h reperfusion, thrombopoietin i.v. immediately or 2 hours after reperfusion, vs untreated controls): significantly reduces these indices of injury to the brain in a dose-dependent manner; also recorded: significantly reduce
- protection of the heart against deleterious effects of ischemia/reperfusion (heart): protects the heart against various deleterious effects of ischemia/reperfusion

Molecule: romiplostim
- crossing of the blood brain barrier relative to Tpo [1]: cross the blood brain barrier more effectively than does Tpo itself

Molecule: CC1=NN(c2ccc(C)c(C)c2)C(=O)/C1=N\Nc1cccc(-c2cccc(C(=O)O)c2)c1O [eltrombopag]
- crossing of the blood brain barrier relative to Tpo [1]: cross the blood brain barrier more effectively than does Tpo itself
